# Experimental data: ChEMBL document CHEMBL1144719, “1-(1-Arylethylidene)thiosemicarbazide derivatives: a new class of tyrosinase inhibitors” (Bioorg Med Chem, 2008)
# Target: T1, Tyrosinase (Agaricus bisporus, UniProt O42713)
# T1 sequence (O42713 whole entry): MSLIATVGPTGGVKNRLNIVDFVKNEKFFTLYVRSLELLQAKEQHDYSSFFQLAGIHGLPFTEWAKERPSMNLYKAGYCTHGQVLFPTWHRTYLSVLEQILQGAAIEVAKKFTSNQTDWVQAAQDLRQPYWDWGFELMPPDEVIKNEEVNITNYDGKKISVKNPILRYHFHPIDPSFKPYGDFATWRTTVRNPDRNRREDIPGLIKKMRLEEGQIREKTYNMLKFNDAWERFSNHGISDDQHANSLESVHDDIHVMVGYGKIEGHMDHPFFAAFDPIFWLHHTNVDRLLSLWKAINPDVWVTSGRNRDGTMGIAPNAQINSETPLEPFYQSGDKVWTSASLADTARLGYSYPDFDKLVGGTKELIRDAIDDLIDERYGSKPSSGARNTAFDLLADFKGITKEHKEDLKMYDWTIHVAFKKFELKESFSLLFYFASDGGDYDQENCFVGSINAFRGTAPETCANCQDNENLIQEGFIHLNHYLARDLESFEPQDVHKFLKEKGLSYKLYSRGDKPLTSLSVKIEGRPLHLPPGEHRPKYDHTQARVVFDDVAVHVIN
row,SMILES,IC50
1,C/C(=N/NC(N)=S)c1cccs1,0.14 µM
2,C/C(=N/NC(N)=S)c1ccccc1 [ACETOPHENONE-THIOSEMICARBAZONE],0.34 µM
3,O=c1cccccc1O [TROPOLONE],0.4 µM
4,COc1ccc(/C(C)=N\NC(N)=S)cc1,0.11 µM
5,C/C(=N/NC(N)=S)c1c(O)cc(O)cc1O,22 µM
6,C/C(=N/NC(N)=S)c1ccc(O)cc1O,0.58 µM
7,C/C(=N/NC(N)=S)c1ccc(Br)cc1,0.52 µM
8,COc1ccc(C/C(C)=N\NC(N)=S)cc1,0.42 µM
9,C/C(=N/NC(N)=S)c1ccc(F)cc1,0.17 µM
10,NNC(N)=S [THIOSEMICARBAZIDE],2000 µM
11,C/C(CCc1ccc(O)cc1)=N/NC(N)=S,0.54 µM
12,C/C(=N/NC(N)=S)c1cnccn1,0.88 µM
13,COc1ccc(/C=C/C(=O)O)cc1 [4-METHOXYCINNAMIC ACID],410 µM
14,C/C(=N/NC(N)=S)c1ccc(O)cc1,0.31 µM
15,C/C(=N/NC(N)=S)c1ccc(C(C)C)cc1,1 µM
16,NC(=S)N/N=C(/C(=O)c1ccccc1)c1ccccc1,100 µM
17,CC(=O)c1ccccc1 [ACETOPHENONE],850 µM
18,NC(=S)N/N=C(\c1ccccc1)C(O)c1ccccc1 (stereo unspecified),55.5 µM
19,CC(=O)c1ccc(F)cc1,990 µM
20,C/C(=N/NC(N)=S)c1ccc(C)cc1,0.27 µM
21,COc1ccc(C(C)=O)cc1 [P-METHOXY-ACETOPHENONE],2000 µM
22,C/C(=N/NC(N)=S)c1ccc(/C(C)=N\NC(N)=S)cc1,0.15 µM
23,C/C(=N/NC(N)=S)c1cccnc1,0.82 µM

# Target: T2, Tyrosinase (Agaricus bisporus) (UniProt O42713)
# T2 sequence (whole entry): T1 sequence (O42713 whole entry)
# Test: Inhibition of mushroom tyrosinase at 0.10 mM
row,SMILES,inhibition
1,NC(=S)N/N=C(/C(=O)c1ccccc1)c1ccccc1,47%

# Target: T2, Tyrosinase (Agaricus bisporus)
# Test: Inhibition of mushroom tyrosinase at 2 mM
row,SMILES,inhibition
1,NNC(N)=S [THIOSEMICARBAZIDE],39.9%
2,COc1ccc(C(C)=O)cc1 [P-METHOXY-ACETOPHENONE],47.2%
